Data published in patent US9833431B2, “Pharmaceutical combinations for the treatment of cancer” (Pitney Pharmaceuticals Pty Limited, priority 2013, dated 2017).

Tests used:
LNCaP = assay: SRB cytotoxicity assay, LNCaP cells; assay type: cell-based, human; settings: 72 h
Protocol: (§1) All cell lines described herein were purchased from ATCC. […] Control cultures were treated with ethanol alone.

CFPAC-1 = assay: SRB cytotoxicity assay, CFPAC-1 cells
Protocol: (§2) Cells were seeded in 96-well plates (2,000-3,000 cells/well) and culture overnight prior to treatment with MPL. Control cultures were treated with ethanol alone.
(§3) Cytotoxicity was assessed using the sulforhodamine B (SRB) assay and reported as half maximal inhibitory concentration (IC50; Table 3). Cells were seeded in 96-well plates (2,000-3,000 cells/well), treated with the indicated compound(s) for 72 h, fixed, washed and stained with 100 μl of 0.4% (w/v) SRB dissolved in 1% acetic acid. Unbound dye was removed by five washes with 1% acetic acid before air-drying.
(§4) MPL (5 μM) and combination drugs were applied for 72 h unless indicated.

U251 = assay: SRB cytotoxicity assay, U251 cells; assay type: cell-based; settings: Homo sapiens, U-251, U251, malignant, glial, 72 h
Protocol: as §1

YOU = assay: SRB cytotoxicity assay, YOU cells; assay type: cell-based, human; settings: 72 h
Protocol: as §1

28 malignant cell lines = assay: SRB cytotoxicity assay, summary over malignant cell lines; assay type: cell-based; settings: all 28 malignant cell lines tested, with the exception of CFPAC-1 and SKOV-3; summary of Table 3; read-out: IC50 proliferation
Protocol: as §1

HT-1080 (Fibrosarcoma) = assay: SRB cytotoxicity assay, HT-1080 cells; assay type: cell-based
Protocol: as §1

REN = assay: SRB cytotoxicity assay, REN cells; assay type: cell-based, human; settings: 72 h
Protocol: as §1

U87 = assay: SRB cytotoxicity assay, U87 cells; assay type: cell-based, human; settings: 72 h
Protocol: as §1

PC-3 = assay: SRB cytotoxicity assay, PC-3 cells; assay type: cell-based; settings: Homo sapiens, PC-3, malignant, prostatic, 72 h
Protocol: as §1

LN-18 = assay: SRB cytotoxicity assay, LN-18 cells; assay type: cell-based, human; settings: 72 h
Protocol: as §1

DU-145 = assay: SRB cytotoxicity assay, DU-145 cells; assay type: cell-based; settings: Homo sapiens, DU-145, malignant, prostatic, 72 h
Protocol: as §1

[1] = test system: immortalized cell lines and the CFPAC-1 and SKOV-3 cell lines; assay: SRB cytotoxicity assay, summary over immortalized lines; assay type: cell-based; settings: all immortalized cell lines and CFPAC-1 and SKOV-3; summary of Table 3; read-out: IC50 proliferation
Protocol: as §1

SKOV-3 = assay: SRB cytotoxicity assay, SKOV-3 cells; assay type: cell-based; settings: Homo sapiens, SK-OV-3, SKOV-3, malignant, ovarian, 72 h
Protocol: as §1

MCF-7 = assay: SRB cytotoxicity assay, MCF-7 cells; assay type: cell-based; settings: Homo sapiens, MCF7, 72 h, MCF-7, malignant, breast
Protocol: as §1

Human Fetal Astrocytes = assay: SRB cytotoxicity assay, human fetal astrocytes; assay type: cell-based; settings: Astrocyte, non-malignant, glial, 72 h
Protocol: as §1

HT-29 = assay: cells; assay type: cell-based
Protocol: as §1

T47-D = assay: SRB cytotoxicity assay, T47-D cells; assay type: cell-based; settings: Homo sapiens, T47D, malignant, breast, 72 h
Protocol: as §1

AsPC1 = assay: SRB cytotoxicity assay, AsPC1 cells; assay type: cell-based, human; settings: 72 h
Protocol: as §1

HEK = assay: SRB cytotoxicity assay, HEK cells; assay type: cell-based; settings: Homo sapiens, HEK293, immortalised, nephritic, 72 h
Protocol: as §1

MDA-MB-231 = assay: SRB cytotoxicity assay, MDA-MB-231 cells; assay type: cell-based; settings: MDA-MB-231, malignant, breast
Protocol: as §1

OVCAR-3 = assay: SRB cytotoxicity / proliferation assay, OVCAR-3 cells; settings: for significant cytotoxic effect of MPL alone: OVCAR-3 cells
Protocol: as §2, §3
In order to evaluate the effect of MPL on the in vitro efficacy of an established drug was evaluated using cell viability and cell proliferation assays. Cell viability was conducted according to standard Trypan Blue method. Cell proliferation was assessed using the sulforhodamine B (SRB) assay. For viability experiments, cells were seeded in 6 well plates, whereas for proliferation assays cells were grown in 96 well plates. Following over-night attachment, cells were treated with the intended drug at various concentrations either alone or in combination with monepantel (MPL) for 72 h. Parallel to this, cells treated with MPL alone were also deployed for comparative purposes. Following incubation for 72 h in a standard cell culture incubator, effect of mono and combined drug treatments on cell viability and/or cell proliferation was assessed through using Trypan Blue or SRB assays respectively.
(§5) For viability assay, at the end of treatment period, cells were washed with PBS, trypsinized and counted using Trypan blue and hemocytometer. For the SRB assay cells were fixed, washed and stained with 100 μl of 0.4% (w/v) SRB dissolved in 1% acetic acid. Unbound dye was removed by five washes with 1% acetic acid before air drying. […] Monepantel (gift by Novartis, Basel, Switzerland) was dissolved in 100% ethanol and then diluted with the cell culture media.
as §4

HT-29 5m11 = assay: SRB cytotoxicity assay, HT-29 5m11 cells; assay type: cell-based; settings: Homo sapiens, read-out: LC50 (the source's name)
Protocol: as §1

CHO = assay: SRB cytotoxicity assay, CHO cells; assay type: cell-based; settings: Cricetulus griseus, immortalised, ovarian, 72 h
Protocol: as §1

[2] = in vivo; cited from earlier work
1A9 = assay: SRB cytotoxicity assay, 1A9 cells; assay type: cell-based; settings: Homo sapiens, 1A9, malignant, ovarian, 72 h
Protocol: as §1

C170 = assay: SRB cytotoxicity assay, C170 cells; assay type: cell-based
Protocol: as §1

[3] = test system: HUVEC, human fetal astrocytes and HOSE cells; assay: SRB cytotoxicity assay, summary over early/primary passage cells; assay type: cell-based; settings: summary of Table 3, read-out: IC50 proliferation
Protocol: as §1

IGROV-1 = assay: SRB cytotoxicity assay, IGROV-1 cells; assay type: cell-based; settings: Homo sapiens, IGROV-1, malignant, ovarian, 72 h
Protocol: as §1

PET = assay: SRB cytotoxicity assay, PET cells; assay type: cell-based, human; settings: 72 h
Protocol: as §1

SKOV-1 = assay: SRB cytotoxicity assay, SKOV-1 cells
Protocol: (§6) Cells were seeded in 96-well plates (2,000-3,000 cells/well), treated with the indicated compound(s) for 72 h, fixed, washed and stained with 100 μl of 0.4% (w/v) SRB dissolved in 1% acetic acid. Unbound dye was removed by five washes with 1% acetic acid before air-drying.
as §4

A2780 = assay: SRB cytotoxicity / proliferation assay, A2780 cells; settings: for Mpl Alone, Mpl (x/X) Inhibition: A2780 Ovarian, 72 h, x=events, X=experiments
Protocol: as §2, §6
Cell viability was conducted according to standard Trypan Blue method. Cell proliferation was assessed using the sulforhodamine B (SRB) assay. For viability experiments, cells were seeded in 6 well plates, whereas for proliferation assays cells were grown in 96 well plates. Following over-night attachment, cells were treated with the intended drug at various concentrations either alone or in combination with monepantel (MPL) for 72 h. Parallel to this, cells treated with MPL alone were also deployed for comparative purposes. Following incubation for 72 h in a standard cell culture incubator, effect of mono and combined drug treatments on cell viability and/or cell proliferation was assessed through using Trypan Blue or SRB assays respectively.
as §5

SMILES: C[C@](C#N)(COc1cc(C#N)ccc1C(F)(F)F)NC(=O)c1ccc(SC(F)(F)F)cc1 [MPL, N-[(1S)-1-cyano-2-(5-cyano-2-trifluoromethyl-phenoxy)-1-methyl-ethyl]-4-trifluoromethylsulfanyl-benzamide]
- IC50 (LNCaP; Homo sapiens, LNCaP, malignant, prostatic, SRB): 7.3 µM
- Mpl Alone, Mpl (x/X) Inhibition (LNCaP; LNCAP Prostate, 5 μM MPL, x=events, X=experiments): 1/1
- Mpl Alone, Mpl (x/X) Inhibition (CFPAC-1; CFPAC-1 Pancreatoma, 5 μM MPL, 72 h, x=events, X=experiments): 1/10
- experiments with significant cytotoxic effect of MPL alone (CFPAC-1; CFPAC-1 cells, MPL (5 μM)): 1 of 10
- experiments with cytotoxic effect of MPL alone (CFPAC-1; CFPAC-1 cells, MPL (10 μM), 72 h, data not shown): 4 of 9
- IC50 (CFPAC-1; Homo sapiens, CFPAC-1, 72 h): 30.1 ± 5.5 µM
- IC50 (U251): 17 ± 1.2 µM
- IC50 (YOU; Homo sapiens, YOU, malignant, mesothelial, SRB): 23 µM
- Mpl Alone, Mpl (x/X) Inhibition (YOU; YOU Mesothelioma, 5 μM MPL, x=events, X=experiments): 2/2
- IC50 (28 malignant cell lines): 2 to 25 µM
- Mpl Alone, Mpl (x/X) Inhibition (HT-1080 (Fibrosarcoma); HT180 Fibrosarcoma, 5 or 10 μM MPL, 72 h, x=events, X=experiments): (1/1)
- IC50 (HT-1080 (Fibrosarcoma); Homo sapiens, HT-1080 (Fibrosarcoma), malignant, mesenchymal, SRB, 72 h): 17.2 µM
- EC50 (HT-1080 (Fibrosarcoma); Homo sapiens, HT-1080 cells): 17.2 µM
- IC50 (REN; Homo sapiens, REN, malignant, mesothelial, SRB): 2500 ± 200 nM
- Mpl Alone, Mpl (x/X) Inhibition (REN; REN Mesothelioma, 5 μM MPL, x=events, X=experiments): 2/2
- IC50 (U87; Homo sapiens, U-87 MG, U87, malignant, glial, SRB): 18 ± 7.1 µM
- Mpl Alone, Mpl (x/X) Inhibition (U87; U87 Glioblastoma, 5 μM MPL, x=events, X=experiments): 1/1
- IC50 (PC-3): 21 µM
- IC50 (LN-18; Homo sapiens, LN-18, malignant, glial, SRB): 9.4 ± 0.8 µM
- Mpl Alone, Mpl (x/X) Inhibition (LN-18; LN18 Glioblastoma, 5 μM MPL, x=number of events, X=number of experiments): 2/2
- IC50 (DU-145): 23 µM
- IC50 [1]: 12 to 35 µM
- IC50 (SKOV-3): 31.2 ± 0.8 µM
- IC50 (MCF-7): 15.5 µM
- IC50 (Human Fetal Astrocytes): 85.6 ± 2.7 µM
- significant cytotoxic effect of MPL alone (HT-29; HT29 cells, MPL (5 μM), two experiments): no significant cytotoxic effect
- CC50 (HT-29; Homo sapiens, HT-29, HT29 cells, read-out: LC50 (the source's name)): 5.9 µM
- IC50 (HT-29; Homo sapiens, HT-29, malignant, colorectal, SRB, 72 h): 5.9 ± 0.2 µM
- IC50 (T47-D): 5.3 µM
- Mpl Alone, Mpl (x/X) Inhibition (AsPC1; AsPC-1 Pancreatoma, 5 μM MPL, x=events, X=experiments): 1/2
- IC50 (AsPC1; Homo sapiens, AsPC1, malignant, pancreatic, SRB): 7.2 ± 0.3 µM
- IC50 (HEK): 34.6 ± 0.9 µM
- IC50 (MDA-MB-231; Homo sapiens, MDA-MB-231, 72 h): 23.8 µM
- IC50 (MDA-MB-231; 72 h): 25.8 ± 0.2 µM
- IC50 (OVCAR-3; Homo sapiens, OVCAR-3, 72 h): 6.3 ± 0.8 µM
- Mpl Alone, Mpl (x/X) Inhibition (OVCAR-3; OVCAR-3, 5 μM MPL, 72 h, x=events, X=experiments, Table 7): (3/3)
- Mpl Alone, Mpl (x/X) Inhibition (OVCAR-3; OVCAR-3, 5 or 10 μM MPL, 72 h, Table 8 lower panel, same MPL control for serotonin and wortmannin): (2/2)^2
- Mpl Alone, Mpl (x/X) Inhibition (OVCAR-3; OVCAR-3, 5 or 10 μM MPL, 72 h, Table 8 upper panel, x=events, X=experiments): (5/5)
- A) Single treatment, one symbol per experiment (OVCAR-3; OVCAR-3, MPL (5 μM), 72 h): ✓✓✓✓✓✓
- Mpl Alone, Mpl (x/X) Inhibition (OVCAR-3; OVCAR-3 Ovarian, 5 μM MPL, 72 h, x=events, X=experiments, Table 6): 4/4
- significant cytotoxic effect of MPL alone (OVCAR-3; MPL 2.5 μM, 1/1 experiments): but not 2.5 μM alone
- significant cytotoxic effect of MPL alone (OVCAR-3; MPL 5 μM, 6/6 experiments): significant cytotoxic effect
- CC50 (HT-29 5m11): 10.4 µM
- IC50 (CHO): 34.6 ± 0.8 µM
- single-dose toxicity [2]: > 2000 mg per kg of body weight
- IC50 (1A9): 2500 ± 500 nM
- significant cytotoxic effect of MPL alone (C170; C170 cells, MPL (5 μM)): one of two experiments
- IC50 (C170; Homo sapiens, C170, malignant, colorectal, SRB, 72 h): ~20 µM
- IC50 [3]: > 85 µM
- IC50 (IGROV-1): 4.4 ± 0.3 µM
- IC50 (PET; Homo sapiens, PET, malignant, mesothelial, SRB): 26 µM
- Mpl Alone, Mpl (x/X) Inhibition (PET; PET Mesothelioma, 5 μM MPL, x=events, X=experiments): 2/2
- A) Single treatment, one symbol per experiment (SKOV-1; SKOV-1, MPL (5 μM), 72 h): ✓✓✓
- significant cytotoxic effect of MPL alone (SKOV-1; SKOV-1 cells, MPL 5 μM, 3/3 experiments): significant cytotoxic effect
- Mpl Alone, Mpl (x/X) Inhibition (A2780; 5 μM MPL, Table 6): 6/6^2
- Mpl Alone, Mpl (x/X) Inhibition (A2780; 5 μM MPL, Table 7): (4/4)
- Mpl Alone, Mpl (x/X) Inhibition (A2780; 5 or 10 μM MPL, Table 8 lower panel): (5/5)^
- Mpl Alone, Mpl (x/X) Inhibition (A2780; 5 or 10 μM MPL, Table 8 upper panel): (3/3)
- IC50 (A2780; Homo sapiens, A2780, 72 h): 10 ± 3.8 µM
